Where two headings read alike, the source gives them in different places.
Tests used:
[1] = target: H3KC9me3 peptide; experiment: ITC, H3KC9me3 peptide; format: binding; settings: for Kd: ITC, pH 7.5, 25°C, read-out: Kd (apparent dissociation constant)
Experimental: ITC measurements were performed on a iTC200 calorimeter (Microcal, Malvern, UK) at 25°C in binding buffer (10 mM triethanolamine (pH 7.5), 20 or 150 mM NaCl, 0.1 mM EDTA). Reaction heats were recorded by sequences of 37 injections of 1.8 mM hHP1β, spaced at 120 s intervals, into 250 μl of 60 μM H3 peptides, nucleosomes or oligonucleosomal arrays under constant stirring at 1,000 r.p.m. (injection #1–10: 0.5 μl each; injection #11–32: 1 μl each; injection #33–37: 2 μl each). Heats of dilution, obtained by the titration of hHP1β into buffer, were substracted from raw data before analysis. Raw data were integrated, normalized and the apparent heat change (Δq) of the reaction was plotted against the molecular ratio using the Origin software. For the determination of apparent enthalpy changes (ΔHapp), the molar association constant (KA), and the stoichiometry (n) of the interaction, non-linear least-square fitting of the Δq values was performed by the Origin software using a binding model of one set of identical binding sites.
Supplementary Table 1: Summary of conditions used in the different experiments of this study. experiment result modification template Temp. [NaCl] [MgCl2] […]
chromatin Fig. 1e,f; Fig. S1f-h; H3K9me3 oligo- 4 150 5 coprecipitation Fig. S2b nucleosomes
Fig. S7d,f; Fig.S9c nucleosomes […]
chromatin sedimentation Fig. 4a; H3K9me3 oligo- 4 150 0
(single point) Fig. S3b nucleosomes […]
chromatin sedimentation. oligo-(titration) Fig. 3a H3K9me3 nucleosomes 4 150 0

[2] = target: asymmetrically modified H3K9me3-mononucleosomes; experiment: SPR, immobilized asymmetric H3K9me3 mononucleosome; design: species or system Xenopus laevis; settings: SPR titration 0.024 to 50 µM, asymmetrically modified mononucleosome at 950 RU, one site-specific binding model; read-out: apparent Kd (Supplementary Fig. 8k)
[3] = tested on: DNA fragment of 150 bp; experiment: Electrophoretic mobility shift assay (EMSA); format: binding; settings: 150 bp DNA, 0, 3, 9 μM protein, 100 mM NaCl, 5 mM MgCl2, RT
Experimental: 50 ng 150 bp DNA amplified from the backbone of pUC18 was incubated with 0, 3, 9 μM recombinant protein in 10 μl EMSA buffer (10 mM Tris-HCl (pH 8.0), 100 mM NaCl, 5 mM MgCl2) for 20 min at room temperature (RT). 2 μl 50% (v/v) glycerol was added and samples were loaded onto 6% native PAGE gels. After electrophoresis, DNA was visualized by staining with 1 × SYBR Gold/0.25 × TBE for 20 min at RT. Images were captured using a ChemiDoc MP Imaging System (Bio-Rad, München, Germany). […]
crosslinking Fig. S6e,f nucleosomes […]
crosslinking Fig. S7a,b nucleosomes
EMSA Fig. 1g; Fig. 5c; n//a RT 100 5
1Preincubation of oligonucleosomes and h HP1β was performed at 4 °C . Measurements wer e carried out at the in dicated te mperature.
2in increments o f 0 .5 mM
3MgCl2 was added at the end of incubation to coprecipitate oligonucleosomes a nd bound hHP1β.

[4] = tested on: H3K9me0 oligonucleosomes; experiment: Fluorescence correlation spectroscopy (FCS), H3K9me0 oligonucleosomes; format: biochemical, Xenopus laevis; settings: 150 mM NaCl
Experimental: All fluorescence measurements were performed with a pulsed custom-built mode-locked Ti:Sa-Laser and a confocal two-photon fluorescence microscope setup. Detailed description of the experimental setup and the measurement procedure are available on request. In all cases 10 nM of the acceptor labelled species, ATTO 610-labelled nucleosomal array, was incubated with 20–200 μM of recombinant hHP1β in 10 μl of 10 mM triethanolamine HCl (pH 7.5), 0.1 mM EDTA, 150 mM NaCl at 4°C. For each sample the fluorescence correlation curve, fluorescence intensity and anisotropy values were determined at 22°C. Every data point was averaged over a minimum of 15 single measurements of 10 s each. […]
The fluorescence data were analysed using the correlation function [drawing 1] , and the equation for free diffusion of particles [drawing 2] , where I(t) is the fluorescence intensity measured at time t, N the particle number, τD the diffusion time, and r0=0.25 the axis ratio of the focal region, considering the dimensions of a Gaussian beam waist. […]
(b) Results of stepwise precipitation and resolubilization after clustering H3K9me3-oligonucleosomes by hHP1β at different concentrations. DNA remaining in the supernatant after centrifugation was incubated with EtBr and measured by fluorescence reading. […]
(c) Instrumental setup used for two -photon fluorescence correlation spectroscopy (FCS). […]

With “hHP1β WT: recombinant human heterochromatin protein 1β (GenBank NM_001127228), 185 aa” the Kd ([1]; 20 mM NaCl) was 11 ± 4 µM, the Kd ([1]; 150 mM NaCl) was 21 ± 3 µM and the “reduced binding to H3-tail peptide containing H3KC9me compared with methylated lysine” value ([1]; Table 1, ref [17]) was “sixfold reduced binding”. For the same substance, the Kd [2] was 7.5 µM, the DNA binding [3] was “hHP1α but not hHP1β showed a high level of general DNA binding” and the “assemblies with H3K9me0 oligonucleosomes (FCS)” value [4] was “larger assemblies only appeared at high hHP1β WT concentrations”.

Source: paper PMC4838890, “Dynamic and flexible H3K9me3 bridging via HP1β dimerization establishes a plastic state of condensed chromatin” (Nature Communications, 2016)
